The text below walks through data of patent US20250170239A1, “CELLULAR REPROGRAMMING BY TARGETING THE GOLGI APPARATUS” (MUSC Foundation for Research Development, priority 2023, published 2025).

“Also recorded” adds a separate entry of the source.

One assay relates to Prdx4 knockdown T cells. As to the kind of experiment: Prdx4 siRNA knockdown Pmel T cells under Golgi/oxidative stress. In kind it is cell-based, mouse. On the procedure:
(FIG. 22A) Pmel T cells were activated for 3 days before treatment with vehicle or 50 mM H2O2 for 6 hrs. Prdx4-Golgi colocalization was assessed by PLA using mouse anti-Giantin and rabbit anti-Prdx4 antibodies. (FIG. 22B) Activated Pmel T cells treated with vehicle or 50 mM H2O2 for 6 hrs or 24 hrs with Monensin (1 mM). PLA assay was performed using anti-Giantin and anti-Prdx4 antibodies. (FIG. 22C) Experimental design using Prdx4-targeted siRNA to silence expression of Prdx4 in Pmel T cells. (FIG. 22D) GM130 expression assessed under control versus Monensin (1 μM) conditions in T cells treated with control-siRNA or Prdx4-siRNA. (FIG. 22E) GM130 expression assessed under control versus 50 mM H2O2 conditions in T cells treated with control-siRNA or Prdx4-siRNA+/−0.5 mM GYY4137. (FIG. 22F) Protein translation assessed in Pmel T cells activated+/−GYY4137 and treated with control-siRNA or Prdx4-siRNA. (FIG. 22G) GM130 expression in Pmel T cells treated with vehicle, GYY4137, or Catalase (10 μg/mL). (FIGS. 22H and 22I) Site directed mutagenesis performed to mutate cysteine-54 of the Prdx4 gene. Prdx4-targeted shRNA was used to knock down expression of Prdx4 in Jurkat T cells, followed by transfection with plasmid containing wildtype or mutated Prdx4. (FIG. 22I) GM130 expression assessed after treatment with 50 mM H2O2+/−GYY4137. (FIG. 22J) B16-F10 tumors were injected s.c. into flanks of Pmel mice and grown to ˜100 mm2. TILs and T cells from tumor-draining lymph nodes were isolated via Ficoll spin followed by magnetic bead positive selection. FACS analysis of Prdx4 expression in TILs gated on PD1loLag3lo vs PD1hiLag3hi. (FIG. 22K) Lentiviral supernatant was generated using GFP-tagged control plasmid or GFP-tagged Prdx4-overexpression plasmid. Pmel T cells were transduced with control or Prdx4 lentivirus. Pmel T cells overexpressing Prdx4 and control T cells were treated with H2O2 (50 mM) followed by staining with anti-GM130.
Given the delicate redox balance necessary for the native disulfide bonds, it was postulated that a localized mechanism for the detection and elimination of ROS produced during the oxidative folding process may require Prdx4. Thus, it was hypothesized that ER and Golgi network stress mitigated by H2S is mediated through the Prdx4 localization and activity in these organelles. First, it was established if Prdx4 also localizes within the Golgi apparatus in T cells using a proximity ligation assay (PLA), a tool that allows in situ detection of endogenous proteins with high specificity and sensitivity, with antibodies directed against Giantin (a conserved Golgi membrane protein) and Prdx4. […] Next, using siRNA targeting Prdx4, expression of Prdx4 in CD8+ Pmel T cells was knocked down (FIG. 22C, FIGS. 23A and 23B). The cells were then subjected to conditions of oxidative and Golgi stress in the presence or absence of H2S treatment. […] Then, to determine whether the protective effect of H2S on Golgi stress is dependent on the presence of Prdx4, Golgi stress was induced in the presence or absence of H2S with control (siCtl) and Prdx4 knockdown (siPrdx4) T cells.

For the next assay, the system named is Pmel T cells. The procedure:
On day 3, the cells were collected for RNA-sequencing analysis (n=3 independent samples). (FIG. 14A) Principle component analysis (PCA) of control versus H2S-treated samples. […] (FIG. 14E) Schematic of experimental design for cytokine and translation assays. (FIG. 14F) Pmel CD8+ T cells were activated for 3 days with gp100 and IL2+/−0.5 mM GYY4137. On day 3, the cells were washed and re-stimulated with gp100 for 4 hours, followed by measurement of cytokine production via FACS. (FIG. 14G) Active protein translation was assessed using Click-iT Plus OPP Alexa Fluor 647 Protein Synthesis Assay Kit (ThermoFisher) (n=3 independent samples) in Pmel T cells after re-stimulation (n=3 independent samples). (FIG. 14H) Levels of EIF2a, phosphorylated 4EBP1, and phosphorylated rS6 evaluated via FACS in Pmel T cells after re-stimulation (n=4 independent samples). (FIG. 14I) Pmel CD8+ T cells were activated for 2 days with gp100 and IL2 followed by transduction with either control lentivirus or CBS-expressing lentivirus. On day 5, the cells were washed and re-stimulated with gp100 for 4 hours. Quantification of protein translation assessed using Click-iT Plus OPP Alexa Fluor 647 Protein Synthesis Assay Kit and quantification intracellular cytokines assessed using FACS (n=3 independent samples). MFI represents mean fluorescence intensity.
Pmel T cells were re-stimulated with gp100 peptide (0.1 μg/mL) and Click-iT™ Plus OPP Alexa Fluor™ 647 Protein Synthesis Assay Kit (ThermoFisher Scientific #C10458) was used to measure protein translation using flow cytometry following the manufacturer's protocol.

The next assay has as its system Golgi^lo T cells. Particulars: GYY4137 (0.5 mM) 3 days, stimulated with gp100.
Assay [1] deals with phospho-PERK, phospho-IRE1a, ATF4. Particulars: 12-hr incubation with 50 mM H2O2.
The subject of a further assay is Pmel CD8+ T cells. The assay can be described thus: Re-stimulation with gp100 and FACS cytokine analysis. In kind it is cell-based, mouse. Particulars: 0.5 mM GYY4137 3 days, re-stimulated with gp100. The source says:
The impact of H2S on T cell effector function was next determined. Pmel CD8+ T cells were activated and expanded with standard culture conditions or with the addition of the H2S donor and subsequently re-stimulated with gp100 cognate antigen (FIG. 14E). […] Given the importance of protein translation in maintaining a robust anti-tumor response and the repression of T cell translation that occurs in the TME (Riesenberg B. P., et al., 2022, bioRxiv, 2022.01.31.478547; Marchingo J. M., et al., 2022, Cell Mol Immunol., 19(3):303-315), it was determined if H2S influences protein translation.

Source text for Golgi^lo T cells: Cells were subsequently stimulated with gp100 antigen and analyzed for production of cytokines by FACS (n=4). (FIG. 25B) Quantification of FACS MFI values for MitoTracker Deep Red FM stain in Golgi^hi vs. Golgi^lo cells (n=4 independent samples). (FIG. 25C) Real-time flux in OCR measured using Seahorse metabolic flux analysis. Shown is the quantification of mean oxygen consumption rate (OCR) throughout the assay, spare respiratory capacity (SRC), maximal respiration, and basal respiration (n=experimental replicates representative of 3 separate experiments). (FIG. 25D) FACS sorted Golgi^hi vs. Golgi^lo melanoma epitope gp100 TCR reactive CD8+ T cells from Pmel mouse were analyzed using transmission electron microscopy (TEM) to evaluate mitochondria and Golgi morphology. (FIG. 25E-25H) Global metabolomics analysis was performed on Golgi^hi vs. Golgi^lo Pmel T cells and analyzed for PCA (FIG. 25E) and pathway enrichment (FIG. 25F). […] (FIGS. 25M and 25N) Human CD19 CAR-T cells were expanded and sorted into Golgi^hi and Golgi^lo based on BODIPY TR Ceramide dye fluorescence and were co-cultured at a 1:1 ratio with Raji cells. (FIG. 25M) The percentage of viable Raji cells remaining after 24 hours was analyzed using FACS. (FIG. 25N) Expression of Perforin and Granzyme B was assessed using FACS in sorted CD19 CAR-T cells following co-culture with Raji cells. […]

Turning to `C1COCCN1.COc1ccc(P(=S)(S)N2CCOCC2)cc1` (stereo not shown) [GYY4137], the “GM130 expression under Golgi stress, control (siCtl) T cells” value in the assay on Prdx4 knockdown T cells (50 mM H2O2 +/− 0.5 mM GYY4137) is “prevented the decrease in GM130 expression”. The “GM130 expression under Golgi stress, Prdx4 knockdown (siPrdx4) T cells” value in the assay on Prdx4 knockdown T cells (50 mM H2O2 +/− 0.5 mM GYY4137, listed as H2S) was “protective effect was absent; also recorded: absent when Prdx4 was knocked down”. In addition, the “increase in protein translation, Prdx4 knockdown T cells” value in the assay on Prdx4 knockdown T cells (+/− GYY4137) is reported as “not observed”. In the assay with Pmel T cells (FACS after re-stimulation), the “phosphorylation of 4EBP1” value is recorded as “increased phosphorylation of 4EBP1”; the “total EIF2α and phosphorylated S6 ribosomal protein” value was “increased total levels of EIF2α and phosphorylated levels of S6 ribosomal protein”. For the same compound, the “overall protein translation (OPP incorporation)” value in the assay on Pmel T cells (upon re-stimulation with cognate antigen) is listed as “significantly enhanced upregulation of overall protein translation”. Further, the “effector functions (cytokines by FACS) of Golgi^lo T cells” value in the assay with Golgi^lo T cells is on record as “partial restoration of their effector functions”. Also, the “oxidative stress-induced increase of phospho-PERK, phospho-IRE1a, ATF4” value in assay [1] is “this increase was mitigated”. In addition, in the assay on Pmel CD8+ T cells, the “Granzyme B and CD107 expression” value is “increased levels of cytolytic molecule Granzyme B and CD107 expression”; the “secretion of effector cytokines TNF-α and IFN-γ” value is “enhanced secretion of effector cytokines TNF-α, and IFN-γ”.
